{
  "source": "patent US7795208B2",
  "about": "“Methods of using deacetylase inhibitors to promote cell differentiation and regeneration” (The Salk Institute for Biological Study, priority 2001, dated 2010)",
  "key": {"C2C12 cells": {"test_system": "C2C12 cells", "assay": "Differentiation and muscle protein expression of C2C12 myoblasts exposed to deacetylase inhibitors (MHC immunofluorescence, Western blot, RT-PCR, FACS)", "assay_type": "cell-based, mouse", "protocol": "Mouse muscle myoblast C2C12 cells (obtained from the American Type Culture Collection, ATCC CRL-1772) and CC42 cells (from Dr. Kenneth Walsh, Tufts University School of Medicine) were cultured in DMEM supplemented with 20% fetal bovine serum, 2 mM glutamine and 1× kanamycin (growth medium, GM). Cellular differentiation was induced with DMEM supplemented with 2% horse serum and 1× insulin, transferring, selenium (Life Technologies). Human skeletal myocytes (CC-2561) were purchased from Clonetics. Stable C2C12 cell lines with integrated reporters are described in Wu, Z., et al., Mol Cell Biol 20:3951-64 (2000). The MCK-luc, 4RE-luc, MEF2 reporter constructs have been described in Puri, P. L., et al., EMBO Journal 16:369-83 (1997a) and Sartorelli, V., et al., Molecular & Cellular Biology 17:1010-26 (1997). The E2F-luc plasmid is described in Helin, K., et al., Genes Dev 7:1850-61 (1993). The MLC-lacZ-nls plasmid is described in Wu, et al. (2000). Dr. Stuart Schreiber (Harvard University) provided the vector expressing Flag-HDAC1, which is described in Taunton, J., et al., Science 272: 408-11 (1996). Transient transfections were performed using FuGENE 6 transfection reagent (Roche Molecular Biochemicals). Following transfections, luciferase activity was determined using the Dual-Luciferase reporter assay system (Promega) on a microtiter luminescence detection system (MLX, Dynex).\nFor immunoblotting, cell extracts were obtained after incubating the cells in standard lysis buffer. Western blots were probed with the following antibodies: anti-MHC (MF-20), anti-myogenin (FD5), and anti-tubulin (E7), obtained from the Developmental Studies Hybridoma Bank, University of Iowa. Primary antibodies were visualized with the ECL cheminoluminescent kit (Amersham). Cells were fixed and stained with anti-MHC MF-20 antibodies. Nuclei were visualized by 4′,6′-[…]-2-phenylindole (DAPI). FITC-conjugated or Texas red-conjugated secondary antibodies were employed to reveal the primary antibodies.\nC2C12 and CC42 cells were exposed to sodium butyrate 5 mM (Sigma), trichostatin A 50 nM (Upstate Biotechnologies), or valproic acid 10 mM (Sigma) for 24 hours in GM (GM regimen). TSA was removed and the cells cultured in DM for 48 hrs before being analyzed. When indicated (DM regimen), the cells were exposed to deacetylase inhibitors when switched from GM to DM and cultured in their presence for 48 hrs.\nAnother striking effect induced by DI is their ability to increase the number of nuclei present in MHC positive cells. While approximately 15% of the total nuclei are present in elongated, MHC-positive myotubes not exposed to DI, approximately 75-80% of the total nuclei are detected in hypernucleated MHC-positive myotubes when these have been previously exposed to DI (see FIG. 1D and Table 1). In Table 1, C2C12 cells were either exposed to sodium butyrate, TSA, VPA or left untreated for 24 hours in GM. The medium was replaced with DM without DI, and MHC expression was detected by immunofluorescent staining. Nuclei were visualized with DAPI. The values in parenthesis indicate the percentage of nuclei detected in MHC-positive cells. The values are derived from two independent trials."}, "[1]": {"test_system": "histones of the MCK enhancer", "assay": "Chromatin immunoprecipitation with anti-acetyl-histone H4", "assay_type": "cell-based, mouse", "conditions": "myoblasts exposed to TSA in GM 16 hours, then DM 24 hours", "protocol": "In FIG. 3A, MyoD acetylation in undifferentiated C2C12 myoblasts (GM) untreated (−) or treated with either sodium butyrate (Butyr.) or TSA and in differentiated myotubes (abbrev. DM in FIG. 3A, but not to be confused with the abbreviation for “differentiation medium” as used elsewhere herein) was measured by ^3H incorporation of exogenously transfected Flag-tagged MyoD following metabolic labeling with ^3H sodium acetate as described in Sartorelli, V., et al., Molecular Cell 4:725-34 (1999). […] Chromatin was immunoprecipitated with antibodies against acetyl-histone 4 (AcH4) or IgG (as a control). Purified DNA from anti-AcH4 immunoprecipitated chromatin was analyzed by PCR using primers recognizing GAPDH promoter and MCK enhancer as described in Example 1. Unbound DNA (lanes 2 and 3, top panel) is an aliquot of chromatin not immunoprecipitated by anti-AcH4 antibody and amplified with GAPDH primers. Input (lanes 2 and 3, bottom panel) is an aliquot (1%) of the chromatin analyzed before the immunoprecipitation to quantify the amount of DNA present in different samples. […] Myoblasts were then formaldehyde cross-linked and processed. […]\nThe MCK primers amplify nucleotides −1229 to −1007 of the MCK enhancer, while the GAPDH primers amplify nucleotides −1030 to −721. The PCR products were analyzed on 6% non-denaturing polyacrylamide gels. […]"}, "mouse embryos": {"test_system": "mouse embryos", "assay": "Embryos of pregnant MLC1/3F-nLacZ mice exposed in utero (somitogenesis, muscle gene expression)", "assay_type": "in vivo", "method": "MLC1/3F-nLacZ pregnant mice (E 8.5) received intra peritoneal injection of 15 μg of TSA (WAKO chemicals, Neuss Germany) or VPA (Sigma) at E 8.5 and E 9.5 as described in Faiella, A., et al., Hum Mol Genet 9:227-36 (2000), and Nervi, C., et al., Cancer Res 61:1247-9 (2001). VPA was dissolved in distilled water and administered at doses of 6 mg/mice (about 150 μg/ml) every 12 h at E 8.5, E 9, E 9.5, E 10 as described in Faiella et al. (2000). […] Mice were sacrificed at E 10.5, and the embryos were observed under a dissecting stereo-microscope to evaluate their viability, presence of external malformations, and number of somites. Embryos were fixed in 4% paraformaldehyde for histology and X-Gal staining or immunocytochemistry using antibodies against MyoD and myosin heavy chains as described in Tajbakhsh, S., et al., Neuron 13:813-21 (1994).\nDI was administered intraperitoneally to pregnant mice (at a concentration of 0.5 to 1 mg/Kg for TSA and 200 mg/Kg for VPA) at post-implantation stages of E 8.5, and the pregnant mice were sacrificed at 10.5, when MyoD expression is clearly detectable in the myotomes. […] In Table 2, Somites of MLC1/3F-nLacZ mice (injected at day 8.5 and sacrificed at day 10.5) were scored after staining the embryos to detect β-galactosidase activity."}, "cyclinA-luc": {"test_system": "cyclinA-luc", "assay": "Integrated cyclinA-luc reporter in stable C2C12 clone", "assay_type": "cell-based, mouse", "conditions": "TSA treatment in GM", "protocol": "FIGS. 2A-D are graphs showing DI activation muscle-specific transcription in skeletal muscle cells. […] Luciferase activity was measured in non-treated cells cultured in either GM (GM) or DM (DM). Alternatively, C2C12 were exposed to sodium butyrate for 24 hours in GM and then switched to DM without sodium butyrate (Butyr/GM>DM) or treated with sodium butyrate when cultured in DM (Butyr/DM) before being analyzed for luciferase activity. […] Luciferase assays were performed after culturing the cells for 48 hours in DM without sodium butyrate. […] The reporter activity was also analyzed in cells differentiated in the absence of TSA (DM)\nMouse muscle myoblast C2C12 cells (obtained from the American Type Culture Collection, ATCC CRL-1772) and CC42 cells (from Dr. Kenneth Walsh, Tufts University School of Medicine) were cultured in DMEM supplemented with 20% fetal bovine serum, 2 mM glutamine and 1× kanamycin (growth medium, GM). Cellular differentiation was induced with DMEM supplemented with 2% horse serum and 1× insulin, transferring, selenium (Life Technologies). Human skeletal myocytes (CC-2561) were purchased from Clonetics. […] Following transfections, luciferase activity was determined using the Dual-Luciferase reporter assay system (Promega) on a microtiter luminescence detection system (MLX, Dynex). […]"}, "[2]": {"conditions": "C2C12, DI 24 hours in GM, then DM without DI, Tr. 1 and Tr. 2"}, "[3]": {"conditions": "i.p. to pregnant mice at E 8.5, sacrificed at 10.5, 0.5 to 1 mg/Kg TSA, 200 mg/Kg VPA"}, "[4]": {"conditions": "treated at E 8.5, sacrificed at E 9.5"}},
  "note": "Values joined by “and” are separate entries in the source; they are usually repeats but may differ in a detail not shown here. Equal entries are not always repeated.",
  "data": [
    {"compound": "CC(/C=C/C(=O)NO)=C\\[C@@H](C)C(=O)c1ccc(N(C)C)cc1", "note": "[TSA, trichostatin A]", "values": [
      {"measurement": "Nuclei/MHC-Positive Cells (number of nuclei)", "setting": "C2C12 cells; [2]", "result": "200 and 210"},
      {"measurement": "percentage of nuclei detected in MHC-positive cells", "setting": "C2C12 cells; [2]", "result": "75% and 65%"},
      {"measurement": "endogenous MCK transcripts (RT-PCR)", "setting": "C2C12 cells; undifferentiated myoblasts exposed in GM", "result": "induction of endogenous MCK transcripts"},
      {"measurement": "MHC expression and frequency of MHC-positive multinucleated cells", "setting": "C2C12 cells; undifferentiated myoblasts exposed in GM, differentiated in the absence of DI, vs untreated cells", "result": "effects undistinguishable from those exerted by sodium butyrate"},
      {"measurement": "histone H4 acetylation of the MCK enhancer (ChIP)", "setting": "[1]", "result": "histone hyperacetylation of the MCK enhancer"},
      {"measurement": "level of MLC-lacZ transgene expression", "setting": "mouse embryos; E 10.5 embryos, vs control embryos", "result": "higher level of MLC-lacZ transgene expression"},
      {"measurement": "# somites (β-galactosidase staining)", "setting": "mouse embryos; MLC1/3F-nLacZ mice injected at day 8.5, sacrificed at day 10.5, TSA [1 mg/ml] (20 ul + 380 ul PBS), VPA 155 mM, one value per embryo, PBS controls 25-32", "result": "32 and 37 and 34 and 36 and 33"},
      {"measurement": "Notch transcripts", "setting": "mouse embryos; animals exposed to a DI", "result": "increased"},
      {"measurement": "levels of MHC in exposed embryos (Western blot)", "setting": "mouse embryos; extracts of total embryos", "result": "augmented the levels of MHC"},
      {"measurement": "number of MLC expressing somites", "setting": "mouse embryos; [3]", "result": "consistently increased"},
      {"measurement": "number of MyoD expressing myotomes", "setting": "mouse embryos; [3]", "result": "consistently increased"},
      {"measurement": "acetylation of histone H4 in embryos", "setting": "mouse embryos; [4]", "result": "increased acetylation of histone H4"},
      {"measurement": "embryo size vs control embryos", "setting": "mouse embryos; [4]", "result": "modestly and consistently larger than control embryos"},
      {"measurement": "increase in number of somites vs control embryos", "setting": "mouse embryos; [4]", "result": "+2 to +6"},
      {"measurement": "number of somites expressing Myf-5", "setting": "mouse embryos; [4]", "result": "increased"},
      {"measurement": "serum-dependent transcription of integrated cyclinA-luc", "setting": "cyclinA-luc", "result": "not stimulated"}
    ]}
  ]
}
